Laboratory results published in patent publication US20260109707A1, “HETEROBIFUNCTIONAL COMPOUNDS AND METHODS OF TREATING DISEASE” (Halda Therapeutics OpCo. Inc., priority 2022, published 2026).
Where two headings read alike, the source gives them in different places.

Columns and labels:
[1] = test system: T-Rex 293 cell line SC3 cells having increased expression of androgen receptor protein due to exposure to doxycycline; experiment: Cellular growth inhibition assay, T-Rex 293 SC3 cells with doxycycline (CellTiter-Glo, 72 hours); format: cell-based; details: T-Rex 293 SC3 cells with increased androgen receptor expression due to doxycycline (10 ng/mL)
Outline: (§1)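 Doxycycline (10 ng/mL) was either included or omitted to toggle wild-type androgen receptor expression in SC3 cells, a T-Rex 293 clone, grown in stripped-serum, phenol red-free medium. After 72 hours with compound, viable cells were quantified by CellTiter-Glo 2.0.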

[2] = test system: T47D cells; experiment: Cellular growth inhibition assay for T47D cells (CellTiter-Glo, 72 hours); format: cell-based, human; details: 72 hours treatment
Outline: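 Growth inhibition as GI50, fitted with four parameters to CellTiter-Glo luminescence after 72 h of compound exposure (0.5% DMSO). Cells were T47D, grown in insulin-supplemented (0.2 units/mL) DMEM with 10% FBS and treated one day post-seeding.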

[3] = test system: VCaP cells; experiment: Cellular growth inhibition assay for VCaP cells (CellTiter-Glo, 72 hours); format: cell-based, human
Outline: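 Luminescent viability signal after 72 h of compound exposure gave GI50 values by four-parameter nonlinear regression. Compounds were added in 0.5% DMSO to cells plated 24 h earlier at 5000/well in DMEM containing 10% FBS.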

[4] = test system: T-Rex 293 cell line SC3 cells lacking increased expression of androgen receptor protein; experiment: Cellular growth inhibition assay, T-Rex 293 SC3 cells without doxycycline (CellTiter-Glo, 72 hours); format: cell-based; details: T-Rex 293 cell line SC3 cells not exposed to doxycycline (lacking increased androgen receptor expression)
Outline: as §1

Row | SMILES | GI50 ([1]; 72 h) [nM] | GI50 ([2]; Homo sapiens, T47D, 72 h) [nM] | GI50 ([3]; Homo sapiens, VCaP, 72 h) [nM] | GI50 ([4]; 72 h) [nM] | GI50 [1] [nM] | GI50 [2] [nM] | GI50 [3] [nM] | GI50 [4] [nM]
1 | Cc1sc2c(c1C)C(c1ccc(CN3CC(=O)N4C[C@H](c5ccc(C(=O)N[C@H]6CC[C@H](Oc7ccc(C#N)c(Cl)c7)CC6)nn5)C[C@H]4C3=O)cc1)=N[C@@H](Cc1ncco1)c1nnc(C)n1-2 [I-343] | < 500 | > 3000 | 1500 to 3000 | > 3000 |  |  |  | 
2 | Cc1sc2c(c1C)C(c1ccc([C@@H]3CCN(C(=O)[C@H]4CCCN(c5ccc(C(=O)N[C@H]6CC[C@H](Oc7ccc(C#N)c(Cl)c7)CC6)nn5)C4)C3)cc1)=N[C@@H](Cc1ncco1)c1nnc(C)n1-2 [I-344] | > 3000 | > 3000 | > 3000 | > 3000 |  |  |  | 
3 | Cc1sc2c(c1C)C(c1ccc([C@H]3CCN(C(=O)[C@H]4CCCN(c5ccc(C(=O)N[C@H]6CC[C@H](Oc7ccc(C#N)c(Cl)c7)CC6)nn5)C4)C3)cc1)=N[C@@H](Cc1ncco1)c1nnc(C)n1-2 [I-345] | < 500 | 500 to 1500 | < 500 | > 3000 |  |  |  | 
4 | Cc1sc2c(c1C)C(c1ccc(CN3CC(=O)N4C[C@@H](c5ccc(C(=O)N[C@H]6CC[C@H](Oc7ccc(C#N)c(Cl)c7)CC6)nn5)C[C@H]4C3=O)cc1)=N[C@@H](Cc1ncco1)c1nnc(C)n1-2 [I-346] | < 500 | 500 to 1500 | < 500 | > 3000 |  |  |  | 
5 | Cc1sc2c(c1C)C(c1ccc(CC3CC4(CCN(c5ccc(C(=O)N[C@H]6CC[C@H](Oc7ccc(C#N)c(Cl)c7)CC6)nn5)CC4)C3)nc1)=N[C@@H](Cc1ncco1)c1nnc(C)n1-2 [I-347] | < 500 | < 500 | < 500 | < 500 |  |  |  | 
6 | Cc1sc2c(c1C)C(c1ccc(N3CC4(C3)CC3(CCN(c5ccc(C(=O)N[C@H]6CC[C@H](Oc7ccc(C#N)c(Cl)c7)CC6)nn5)CC3)C4)cc1)=N[C@@H](Cc1ncco1)c1nnc(C)n1-2 [I-348] | < 500 | < 500 | < 500 | > 3000 |  |  |  | 
7 | Cc1sc2c(c1C)C(c1ccc(O[C@H]3C[C@@]4(CCCN(c5ccc(C(=O)N[C@H]6CC[C@H](Oc7ccc(C#N)c(Cl)c7)CC6)nn5)C4)C3)cc1)=N[C@@H](C)c1nnc(C)n1-2 [I-349] | < 500 | 500 to 1500 | 500 to 1500 | > 3000 |  |  |  | 
8 | Cc1sc2c(c1C)C(c1ccc(O[C@H]3C[C@]4(CCCN(c5ccc(C(=O)N[C@H]6CC[C@H](Oc7ccc(C#N)c(Cl)c7)CC6)nn5)C4)C3)cc1)=N[C@@H](C)c1nnc(C)n1-2 [I-350] | < 500 | 500 to 1500 | < 500 | > 3000 |  |  |  | 
9 | Cc1sc2c(c1C)C(c1ccc(C[C@H]3C[C@@]4(CCCN(c5ccc(C(=O)N[C@H]6CC[C@H](Oc7ccc(C#N)c(Cl)c7)CC6)nn5)C4)C3)cc1)=N[C@@H](C)c1nnc(C)n1-2 [I-351] | < 500 | > 3000 | 1500 to 3000 | > 3000 |  |  |  | 
10 | Cc1sc2c(c1C)C(c1ccc(C[C@H]3C[C@]4(CCCN(c5ccc(C(=O)N[C@H]6CC[C@H](Oc7ccc(C#N)c(Cl)c7)CC6)nn5)C4)C3)cc1)=N[C@@H](C)c1nnc(C)n1-2 [I-352] | < 500 | > 3000 | < 500 | > 3000 |  |  |  | 
11 | Cc1sc2c(c1C)C(c1ccc(CO[C@H]3C[C@@]4(CCCN(c5ccc(C(=O)N[C@H]6CC[C@H](Oc7ccc(C#N)c(Cl)c7)CC6)nn5)C4)C3)cc1)=N[C@@H](C)c1nnc(C)n1-2 [I-353] | < 500 | 500 to 1500 | < 500 | > 3000 |  |  |  | 
12 | Cc1sc2c(c1C)C(c1ccc([C@H]3C[C@@H](C[C@@H]4CCCN(c5ccc(C(=O)N[C@H]6CC[C@H](Oc7ccc(C#N)c(Cl)c7)CC6)nn5)C4)C3)cc1)=N[C@@H](Cc1ncco1)c1nnc(C)n1-2 [I-355] | > 3000 | 1500 to 3000 | 1500 to 3000 | > 3000 |  |  |  | 
13 | Cc1sc2c(c1C)C(c1ccc([C@H]3C[C@@H](C[C@H]4CCCN(c5ccc(C(=O)N[C@H]6CC[C@H](Oc7ccc(C#N)c(Cl)c7)CC6)nn5)C4)C3)cc1)=N[C@@H](Cc1ncco1)c1nnc(C)n1-2 [I-356] | > 3000 | > 3000 | > 3000 | > 3000 |  |  |  | 
14 | Cc1sc2c(c1C)C(c1ccc([C@H]3C[C@H](C[C@@H]4CCCN(c5ccc(C(=O)N[C@H]6CC[C@H](Oc7ccc(C#N)c(Cl)c7)CC6)nn5)C4)C3)cc1)=N[C@@H](Cc1ncco1)c1nnc(C)n1-2 [I-357] | < 500 | < 500 | < 500 | < 500 |  |  |  | 
15 | Cc1sc2c(c1C)C(c1ccc([C@H]3C[C@H](C[C@H]4CCCN(c5ccc(C(=O)N[C@H]6CC[C@H](Oc7ccc(C#N)c(Cl)c7)CC6)nn5)C4)C3)cc1)=N[C@@H](Cc1ncco1)c1nnc(C)n1-2 [I-358] | < 500 | < 500 | < 500 | > 3000 |  |  |  | 
16 | Cc1sc2c(c1C)C(c1ccc(C(C)(C)N3CCC4(CCCN(c5ccc(C(=O)N[C@H]6CC[C@H](Oc7ccc(C#N)c(Cl)c7)CC6)nn5)C4)C3)cc1)=N[C@@H](Cc1ncco1)c1nnc(C)n1-2 (stereo partly shown) [I-359] | > 3000 | > 3000 | > 3000 | > 3000 |  |  |  | 
17 | Cc1sc2c(c1C)C(c1ccc(O[C@@H]3CC[C@]4(CCCN(c5ccc(C(=O)N[C@H]6CC[C@H](Oc7ccc(C#N)c(Cl)c7)CC6)nn5)C4)C3)cn1)=N[C@@H](Cc1ncco1)c1nnc(C)n1-2 [I-360] | < 500 | < 500 | < 500 | < 500 |  |  |  | 
18 | Cc1sc2c(c1C)C(c1ccc(O[C@H]3CC[C@@]4(CCCN(c5ccc(C(=O)N[C@H]6CC[C@H](Oc7ccc(C#N)c(Cl)c7)CC6)nn5)C4)C3)cn1)=N[C@@H](Cc1ncco1)c1nnc(C)n1-2 [I-361] | < 500 | 500 to 1500 | < 500 | > 3000 |  |  |  | 
19 | Cc1sc2c(c1C)C(c1ccc(O[C@@H]3CC[C@@]4(CCCN(c5ccc(C(=O)N[C@H]6CC[C@H](Oc7ccc(C#N)c(Cl)c7)CC6)nn5)C4)C3)cn1)=N[C@@H](Cc1ncco1)c1nnc(C)n1-2 [I-362] | < 500 | < 500 | < 500 | < 500 |  |  |  | 
20 | Cc1sc2c(c1C)C(c1ccc([C@H]3CC[C@]4(C3)CN(c3ccc(C(=O)N[C@H]5CC[C@H](Oc6ccc(C#N)c(Cl)c6)CC5)nn3)CCO4)cc1)=N[C@@H](Cc1ncco1)c1nnc(C)n1-2 [I-363] | > 3000 | > 3000 | > 3000 | > 3000 |  |  |  | 
21 | Cc1sc2c(c1C)C(c1ccc([C@H]3CC[C@@]4(C3)CN(c3ccc(C(=O)N[C@H]5CC[C@H](Oc6ccc(C#N)c(Cl)c6)CC5)nn3)CCO4)cc1)=N[C@@H](Cc1ncco1)c1nnc(C)n1-2 [I-364] | < 500 | < 500 | < 500 | > 3000 |  |  |  | 
22 | Cc1sc2c(c1C)C(c1ccc(CC3CCC4(CC3)CCN(c3ccc(C(=O)N[C@H]5CC[C@H](Oc6ccc(C#N)c(Cl)c6)CC5)nn3)CC4)cc1)=N[C@@H](Cc1ncco1)c1nnc(C)n1-2 [I-365] |  |  |  |  | < 500 | < 500 | < 500 | 500 to 1500
23 | Cc1sc2c(c1C)C(c1ccc(CN3CCC4(CC3)CCN(c3ccc(C(=O)N[C@H]5CC[C@H](Oc6ccc(C#N)c(Cl)c6)CC5)nn3)CC4)cc1)=N[C@@H](Cc1ncco1)c1nnc(C)n1-2 [I-366] | < 500 | < 500 | < 500 | < 500 |  |  |  | 
24 | Cc1sc2c(c1C)C(c1ccc(N3CCC4(CCCN(c5ccc(C(=O)N[C@H]6CC[C@H](Oc7ccc(C#N)c(Cl)c7)CC6)nn5)C4)CC3)cc1)=N[C@@H](Cc1ncco1)c1nnc(C)n1-2 [I-367] | < 500 | < 500 | < 500 | < 500 |  |  |  | 
25 | Cc1sc2c(c1C)C(c1ccc(N3CCC4(CC3)CCN(c3ccc(C(=O)N[C@H]5CC[C@H](Oc6ccc(C#N)c(Cl)c6)CC5)nn3)C4)cc1)=N[C@@H](Cc1ncco1)c1nnc(C)n1-2 [I-368] | < 500 | < 500 | < 500 | < 500 |  |  |  | 
